Assays:
[1] = test system: Streptomyces sp. C GEO175 variant L376T_T240S, SEQ ID NO:19; assay: Steady-state kinetics of 2-ketoacid decarboxylase (ADH/NADH coupled); assay type: biochemical; settings: relative to GEO 175, same conditions
Description: FIG. 6: Depicts results of kinetic characterization of GEO 175 and GEO 175 L376T_T240S. Kinetic constants were measured as described herein. The substrate 2-ketooctanoate carbon chain numbering referred to in the text is numbered in white. According to the molecular model of GEO 175, the double mutation L376T_T240S is predicted to recede the pocket by 1.4 Å and remove interactions between the binding pocket and carbon 8 of the ketoacid alkyl chain. […]
For the native KIVD and KIVD_VLV mutant, 2 ml overnight cultures of XL1B cells were transformed with pQE9 containing N-terminal his-tagged KIVD enzymes and grown in Terrific Broth (BP biomedical, Cat#3046-042) with 50 μg/mL of carbenicillin. […] Protein concentrations were determined using a Synergy H1 spectrophotometer (Biotek) by measuring absorbance at 280 nm using their calculated extinction coefficients with ExPASy ProtParam Tool.^33 All other buffers and salts were purchased from Fisher Scientific unless otherwise specified.
The kcat and KM values of selective KIVD mutants were measured for the substrates: C3, C5, isoC5, and C8. […] Activity was measured at 0.005 mM to 10 mM substrates. […]

[2] = test system: E. coli strain (ATCC 98082 pZS_thrO, pZAlac_ilvA_LeuA, pZE12LeuA*BCDKA6_KIVD_wt); assay: Alcohol toxicity: growth (OD600) of the alcohol production strain over 7 hours; assay type: cell-based; settings: 7-hour incubation
Description: Alcohol tolerance of the in vivo alcohol production strain was evaluated by supplementing the fermentation media with specified quantities of long chain alcohols, and measuring growth over 7 hours. Both the E. coli strain (ATCC 98082 pZS_thrO, pZAlac_ilvA_LeuA, pZE12LeuA*BCDKA6_KIVD_wt) and fermentation media (1×M9 metals+1× trace metal mix+0.5% yeast extract+2% glucose+antibiotics) and conditions are the same as described above (Fermentation procedure and analysis). Cells were grown in media without IPTG-induction to a starting OD600 ˜0.02 and then supplemented with either 1-petanol, 1-hexanol, 1-heptanol, or 1-octanol at specified concentrations of 10 mg/L, 50 mg/L, 250 mg/L, 500 mg/L, or 1000 mg/L. OD600 readings were taken hourly up to 7 hours.

[3] = target: GEO179, 2-ketoacid decarboxylase, SEQ ID NO:14 (Klebsiella variicola, UniProt A0ACD7F8P2, H281L/S236A/T380V); assay: Steady-state kinetics of 2-ketoacid decarboxylase (ADH/NADH coupled); assay type: biochemical; settings: pH 7.5, 21° C.
Source text: (§1) FIG. 20: Depicts results of a structural alignment of GEOs and KIVD (GEO175=SEQ ID NO:2, GEO243=SEQ ID NO:5, GEO 250=SEQ ID NO:6, GEO 242=SEQ ID NO:7, GEO 245=SEQ ID NO:8, GEO 251=SEQ ID NO:9, GEO 247=SEQ ID NO:10, GEO 244=SEQ ID NO:11, GEO 246=SEQ ID NO:12, GEO 248=SEQ ID NO:13, GEO 179=SEQ ID NO:14, GEO 240=SEQ ID NO:15, GEO 195=SEQ ID NO:16, GEO 241=SEQ ID NO:17, GEO 249=SEQ ID NO:4, KIVD_VLV=SEQ ID NO:3). Active site residues are denoted with a black box under the residue letter.
(§2) For the native KIVD and KIVD_VLV mutant, 2 ml overnight cultures of XL1B cells were transformed with pQE9 containing N-terminal his-tagged KIVD enzymes and grown in Terrific Broth (BP biomedical, Cat#3046-042) with 50 μg/mL of carbenicillin. (Fisher scientific, Cat# BP2648-5) For the GEOs, 2 ml overnight cultures of BLR cells were transformed with pet29b+ plasmid containing N-terminal his-tagged GEOs, and grown in Terrific Broth with 50 μg/mL of kanamycin. (Fisher scientific, Cat# BP906-5) These cultures were diluted 1:1000 in 500 mL of Terrific Broth with 1 mM MgSO4, 1% glucose, and 50ug/mL of corresponding antibiotics, then grown at 37° C. for 24 hours. Cultures were pelleted down at 4700 rpm for 10 mins and resuspended in auto-induction media (LB broth, 1 mM MgSO4, 0.1 mM TPP, 1×NPS, and 1×5052) for induction at 18° C. for 34 hours. […] Protein concentrations were determined using a Synergy H1 spectrophotometer (Biotek) by measuring absorbance at 280 nm using their calculated extinction coefficients with ExPASy ProtParam Tool.^33 All other buffers and salts were purchased from Fisher Scientific unless otherwise specified.
(§3) The kcat and KM values of selective KIVD mutants were measured for the substrates: C3, C5, isoC5, and C8. […] Activity was measured at 0.005 mM to 10 mM substrates. […] Absorbance readings were taken every 1-minute at OD340 at 21° C. for 60 minutes using the Synergy H1. Kinetic parameters (kcat and KM) were determined by fitting initial velocity versus substrate concentration data to the Michaelis-Menten equation.

[4] = test system: GEO195, 2-ketoacid decarboxylase, SEQ ID NO:16; assay: as above; assay type: biochemical; settings: pH 7.5, 21° C.
Source text: as §1, §2, §3

[5] = 250 mg l^−1 alcohol supplemented, OD 1.9 without toxicity
[6] = 500 mg l^−1 alcohol supplemented
[7] = 1000 mg l^−1 alcohol supplemented

Chain of GEO179, 2-ketoacid decarboxylase, SEQ ID NO:14 (A0ACD7F8P2 entry or part of it H281L/S236A/T380V): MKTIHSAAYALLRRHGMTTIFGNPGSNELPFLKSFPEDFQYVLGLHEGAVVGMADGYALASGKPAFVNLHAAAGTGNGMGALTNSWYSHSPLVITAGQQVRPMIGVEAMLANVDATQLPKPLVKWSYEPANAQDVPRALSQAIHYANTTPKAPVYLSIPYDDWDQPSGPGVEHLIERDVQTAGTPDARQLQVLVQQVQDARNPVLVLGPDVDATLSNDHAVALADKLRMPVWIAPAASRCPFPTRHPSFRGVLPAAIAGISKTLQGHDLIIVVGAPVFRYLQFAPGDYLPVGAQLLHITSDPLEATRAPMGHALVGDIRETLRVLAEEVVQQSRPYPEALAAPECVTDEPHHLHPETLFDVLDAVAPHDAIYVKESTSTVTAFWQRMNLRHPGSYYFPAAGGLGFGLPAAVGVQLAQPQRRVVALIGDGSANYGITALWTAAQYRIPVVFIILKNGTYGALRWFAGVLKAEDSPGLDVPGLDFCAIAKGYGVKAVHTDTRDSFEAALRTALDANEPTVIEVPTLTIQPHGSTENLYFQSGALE

| Compound | decrease in catalytic efficiency relative to GEO 175 [1] | final OD of E. coli cultures [2, 5] | final OD of E. coli cultures [2, 6] | final OD of E. coli cultures [2, 7] | further results |
| --- | --- | --- | --- | --- | --- |
| CC(=O)C(=O)O [C3] | less than 2 fold | – | – | – | – |
| CCCCCCCCO [C8 alcohol, 1-octanol] | – | ~1.0 | No significant growth | – | – |
| CCCCCCCO [heptanol, 1-heptanol] | – | approximately 1.6 | 0.1 | no significant growth | – |
| CCCCCCO [hexanol, 1-hexanol] | – | approximately 1.6 | 1.0 | 0.2 | – |
| CC(C)C(=O)C(=O)O [iso C5, 2-ketoisovaleric acid] | less than 2 fold | – | – | – | kcat [3]: 0.39 ± 0.01 s⁻¹; Km [4]: 9.1 ± 0.3 mM; kcat [4]: 0.072 ± 0.001 s⁻¹ |
| CCCCCO [pentanol, 1-pentanol] | – | – | – | 1.5 | – |

From patent US10829756B2, “Discovery of enzymes from the alpha-keto acid decarboxylase family” (Regents of the University of California, priority 2015, dated 2020)
